Source: ChEMBL document CHEMBL3046839, “Six insecticidal isoryanodane diterpenoids from the bark and twigs of Itoa orientalis” (2008)
Values after ≈ are worked out from the molar mass of the structure shown. Active and inactive are the calls of the source. The rule behind the calls is not given here.

What was measured:
Helicoverpa armigera = assay: Insecticidal activity against Heliothis armigera larvae reared on artificial diet assessed as growth inhibition after 72 hr; type: functional, organism-based
HL-60 = assay: Cytotoxicity against Homo sapiens (human) HL60 cells at 10 uM by MTT assay; type: functional, cell-based
BGC-823 = assay: Cytotoxicity against Homo sapiens (human) BGC823 cells at 10 uM by MTT assay; type: functional, cell-based
Bel-7402 = assay: Cytotoxicity against Homo sapiens (human) Bel7402 cells at 10 uM by MTT assay; type: functional, cell-based
KB = assay: Cytotoxicity against Homo sapiens (human) KB cells at 10 uM by MTT assay; type: functional, cell-based
Spodoptera exigua [1] = assay: Insecticidal activity against Spodoptera exigua larvae reared on artificial diet assessed as mortality rate at 56.19 ppm after 72 hr; type: functional
Spodoptera exigua [2] = assay: Insecticidal activity against Spodoptera exigua larvae reared on artificial diet assessed as mortality rate at 32 ppm after 72 hr; type: functional
Spodoptera exigua [3] = assay: Insecticidal activity against Spodoptera exigua larvae reared on artificial diet assessed as mortality rate at 73.63 ppm after 72 hr; type: functional
Spodoptera exigua [4] = assay: Insecticidal activity against Spodoptera exigua larvae reared on artificial diet assessed as mortality rate after 72 hr; type: functional; settings: for LC50: Spodoptera exigua, 72 h
Spodoptera exigua [5] = assay: Insecticidal activity against Spodoptera exigua larvae reared on artificial diet assessed as mortality rate at 42.63 ppm after 72 hr; type: functional
Spodoptera exigua [6] = assay: Insecticidal activity against Spodoptera exigua larvae reared on artificial diet assessed as mortality rate at 96.88 ppm after 72 hr; type: functional
Spodoptera exigua [7] = assay: Insecticidal activity against Spodoptera exigua larvae reared on artificial diet assessed as mortality rate at 55.64 ppm after 72 hr; type: functional
Spodoptera exigua [8] = assay: Insecticidal activity against Spodoptera exigua larvae reared on artificial diet assessed as mortality rate at 95.65 ppm after 72 hr; type: functional
Spodoptera exigua [9] = assay: Insecticidal activity against Spodoptera exigua larvae reared on artificial diet assessed as mortality rate at 72.68 ppm after 72 hr; type: functional
Spodoptera exigua [10] = assay: Insecticidal activity against Spodoptera exigua larvae reared on artificial diet assessed as mortality rate at 31.56 ppm after 72 hr; type: functional
Spodoptera exigua [11] = assay: Insecticidal activity against Spodoptera exigua larvae reared on artificial diet assessed as mortality rate at 42.08 ppm after 72 hr; type: functional

Row | SMILES | growth inhibition (GI) (Helicoverpa armigera) | Activity (HL-60) | Activity (BGC-823) | Activity (Bel-7402) | Activity (KB) | mortality at 56.19 ppm (Spodoptera exigua [1]) [%] | mortality at 32 ppm (Spodoptera exigua [2]) [%] | mortality at 73.63 ppm (Spodoptera exigua [3]) [%] | LC90 (Spodoptera exigua [4]) [µg/mL] | LC50 (Spodoptera exigua [4]) [µg/mL] | mortality at 42.63 ppm (Spodoptera exigua [5]) [%] | mortality at 96.88 ppm (Spodoptera exigua [6]) [%] | mortality at 55.64 ppm (Spodoptera exigua [7]) [%] | mortality at 95.65 ppm (Spodoptera exigua [8]) [%] | mortality at 72.68 ppm (Spodoptera exigua [9]) [%] | mortality at 31.56 ppm (Spodoptera exigua [10]) [%] | mortality at 42.08 ppm (Spodoptera exigua [11]) [%]
1 | CC(C)[C@@]1(O)[C@H](O)[C@@H]2[C@@]3(O)[C@@H]4O[C@@](O)(C[C@@]2(C)[C@@]2(O)CC[C@](C)(O)[C@@H]42)[C@]31C | inactive | – | – | – | – | – | – | – | – | – | – | – | – | – | – | – | –
2 | CC(C)[C@@]1(O)[C@H](O[C@@H]2O[C@H](CO)[C@@H](O)[C@H](O)[C@H]2O)[C@@H]2[C@@]3(O)[C@@H]4O[C@@](O)(C[C@@]2(C)[C@@]2(O)CC[C@@H](C)[C@@H]42)[C@]31C | inactive | inactive | inactive | inactive | inactive | – | – | – | – | – | – | – | – | – | – | – | –
3 | CC(CO[C@@H]1O[C@H](CO)[C@@H](O)[C@H](O)[C@H]1O)[C@@]1(O)[C@H](O)[C@@H]2[C@@]3(O)[C@@H]4O[C@@](O)(C[C@@]2(C)[C@@]2(O)CC[C@@H](C)[C@@H]42)[C@]31C (stereo partly specified) | inactive | inactive | inactive | inactive | inactive | – | – | – | – | – | – | – | – | – | – | – | –
4 | C[C@@H]1CC[C@@]2(O)[C@@H]1[C@H]1O[C@@]3(O)C[C@]2(C)[C@@H]2[C@@H](O)[C@](O)(C(C)(C)O)[C@@]3(C)[C@]12O | inactive | inactive | inactive | inactive | inactive | – | – | – | – | – | – | – | – | – | – | – | –
5 | CC(C)[C@@]1(O)[C@H](O)[C@@H]2[C@@]3(O)[C@@H]4O[C@@](O)(C[C@@]2(C)[C@@]2(O)CC[C@@H](C)[C@@H]42)[C@]31C [ITOL A] | inactive | inactive | inactive | inactive | inactive | 83 | 56 | 94 | 67.68 (≈ 184 µM) | 28.6 (≈ 77.7 µM) | 73 | 96 | – | – | – | – | –
6 | CC(CO)[C@@]1(O)[C@H](O)[C@@H]2[C@@]3(O)[C@@H]4O[C@@](O)(C[C@@]2(C)[C@@]2(O)CC[C@@H](C)[C@@H]42)[C@]31C (stereo partly specified) [ITOL B] | inactive | – | – | – | – | – | – | – | 131.7 (≈ 343 µM) | 52.8 (≈ 137 µM) | – | – | 59 | 77 | 69 | 26 | 31
